In data set [1] the test system is bovine adrenal chromaffin cells. Format: cell-based.
Data set [2] concerns the target endoproteinase Glu-C (Endo Glu-C) (Staphylococcus aureus, UniProt P0C1U8). To be noted: 24 h, pH 8.
Another data set in a line: in vitro. The following applies: human, plasma.

Bridge positions count the residues as written; N and C are the ends. Ends that are not written are not given here. Peptide text beside a SMILES is read from it.

endoproteinase Glu-C (Endo Glu-C), sequence (P0C1U8 69-336 limits assumed): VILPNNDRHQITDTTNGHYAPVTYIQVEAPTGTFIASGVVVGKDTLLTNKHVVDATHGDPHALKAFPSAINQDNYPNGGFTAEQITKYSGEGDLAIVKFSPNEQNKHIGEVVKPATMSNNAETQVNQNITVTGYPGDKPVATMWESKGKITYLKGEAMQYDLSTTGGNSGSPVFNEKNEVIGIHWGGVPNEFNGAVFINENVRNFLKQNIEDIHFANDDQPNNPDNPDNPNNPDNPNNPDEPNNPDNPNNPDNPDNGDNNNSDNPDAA

In the case of `CC(C)C[C@@H]1NC(=O)[C@H](CC(N)=O)NC(=O)[C@H](CO)NC(=O)[C@H](Cc2c[nH]cn2)NC(=O)[C@H](CCC(=O)O)NC(=O)[C@H](CC(C)C)NC(=O)[C@H](Cc2c[nH]cn2)NC(=O)[C@@H]2CSSC[C@@H]3NC(=O)CNC(=O)CNC(=O)CNC(=O)[C@H](C)NC(=O)[C@H](C)NC(=O)CNC(=O)CNC(=O)[C@H](CSSC[C@H](NC3=O)C(=O)N[C@@H](CO)C(=O)N[C@@H](CC(N)=O)C(=O)N3CCC[C@H]3C(=O)N[C@@H](C(C)C)C(=O)N2)NC1=O` [cMII-6] (cyclo(AAGGGCCSNPVCHLEHSNLCGG); disulfide 6-12, 7-20), the “inhibition of nicotine-evoked catecholamine release, activity relative to linear MII” value (“inhibition … activity relative to linear MII” for short) in data set [1] is “comparable to linear MII”. In data set [2], the “intact peptide remaining with Endo Glu-C” value was “remains entirely intact”. In “in vitro”, the share remaining at 24 h was ~90%.
As to `CC(C)C[C@@H]1NC(=O)[C@H](CC(N)=O)NC(=O)[C@H](CO)NC(=O)[C@H](Cc2c[nH]cn2)NC(=O)[C@H](CCC(=O)O)NC(=O)[C@H](CC(C)C)NC(=O)[C@H](Cc2c[nH]cn2)NC(=O)[C@@H]2CSSC[C@@H]3NC(=O)CNC(=O)CNC(=O)[C@H](C)NC(=O)[C@H](C)NC(=O)CNC(=O)[C@H](C)NC(=O)CNC(=O)CNC(=O)[C@H](CSSC[C@H](NC3=O)C(=O)N[C@@H](CO)C(=O)N[C@@H](CC(N)=O)C(=O)N3CCC[C@H]3C(=O)N[C@@H](C(C)C)C(=O)N2)NC1=O` [cMII-7, Gly Cys Cys Ser Asn Pro Val Cys His Leu GIu His Ser Asn Leu Cys Gly Gly Ala Gly Ala Ala Gly] (cyclo(AAGGCCSNPVCHLEHSNLCGGAG); disulfide 5-11, 6-19), the “inhibition … activity relative to linear MII” value in data set [1] is given as “comparable to linear MII”. Besides, in the data set “in vitro”, the share remaining at 24 h is ~90%.
As to “Gly Cys Cys Ser Asn Pro Val Cys His Leu Glu His Ser Asn Leu Cys Gly Gly Ala Ala Gly (GCCSNPVCHLEHSNLCGGAAG; also: cyclic, ring type and places not given here) [cMII-5, cyclic MII with five residue linker GGAAG]”, the “inhibition … activity relative to linear MII” value in data set [1] was “comparable to linear MII”.

By fraction remaining is commonly meant the share of the starting amount still present when the sample was taken. High values mean greater stability, low ones a greater loss.
